For 14 compounds, DC50 and Emax results are on record in patent US20250325677A1, “STAT6 DEGRADERS” (Gilead Sciences, Inc., priority 2024, published 2025).

Sequence of STAT6 (P42226 whole entry): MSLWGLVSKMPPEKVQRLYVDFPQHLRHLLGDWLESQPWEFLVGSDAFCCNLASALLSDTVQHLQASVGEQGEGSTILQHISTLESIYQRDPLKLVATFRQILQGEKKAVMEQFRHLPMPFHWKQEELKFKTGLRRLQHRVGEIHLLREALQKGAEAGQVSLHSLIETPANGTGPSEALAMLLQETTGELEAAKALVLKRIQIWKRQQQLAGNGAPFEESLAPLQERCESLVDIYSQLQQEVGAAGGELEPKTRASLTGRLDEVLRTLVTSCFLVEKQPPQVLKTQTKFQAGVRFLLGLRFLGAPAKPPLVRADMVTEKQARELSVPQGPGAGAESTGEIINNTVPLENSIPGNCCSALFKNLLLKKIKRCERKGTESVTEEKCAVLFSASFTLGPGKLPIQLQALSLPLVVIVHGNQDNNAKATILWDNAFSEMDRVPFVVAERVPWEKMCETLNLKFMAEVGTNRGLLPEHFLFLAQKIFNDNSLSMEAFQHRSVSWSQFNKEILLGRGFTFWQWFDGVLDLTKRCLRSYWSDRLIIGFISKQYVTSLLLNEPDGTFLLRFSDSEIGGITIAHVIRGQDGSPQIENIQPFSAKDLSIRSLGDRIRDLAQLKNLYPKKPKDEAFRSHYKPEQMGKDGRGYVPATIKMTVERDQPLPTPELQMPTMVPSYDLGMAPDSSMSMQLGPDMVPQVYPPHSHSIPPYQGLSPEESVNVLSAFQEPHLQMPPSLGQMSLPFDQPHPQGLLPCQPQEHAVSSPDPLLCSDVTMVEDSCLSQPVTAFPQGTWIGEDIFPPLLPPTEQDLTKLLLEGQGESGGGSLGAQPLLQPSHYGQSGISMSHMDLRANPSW

The first experiment concerns the target STAT6 (Homo sapiens (Human), UniProt P42226). In words: STAT6 degrader assay (HiBiT, HeLa LgBiT clone 4.14). It is filed as cell-based. The conditions noted are these: HeLa LgBiT clone 4.14, 4-24 h; geometric mean; given for compounds with >80% Emax; read-out: STAT6 degradation DC50. The procedure: This was a HiBit based assay. A HeLa cell line stably transfected with a small protein, LgBit (Large Bit) was obtained from Promega. These cells express endogenous STAT6. A small 11 amino acid gene sequence (HiBiT) was inserted in the STAT6 gene using CRISPR technology. Once STAT6 protein is expressed in the cells, the HiBiT sequence will bind the LgBit in the cells resulting in a functional NanoBiT protein, giving a luminescent tag to STAT6, see FIG. 2.
Single cell clones were prepared and the clone 4.14 was selected for the assay based on that clone showing high luminescence, high STAT6 phosphorylation upon stimulation with IL-4, and inhibition of luminescence when cells were treated with STAT6 siRNA.
HeLa LgBiT clone 4.14 cells were suspended in DMEM with 10% FCS, 1% Pen/Strep, Na-pyrovate and Hygromycin B, at a concentration of 1.25*105 cells pr mL. 5000 cells were added pr well of a 384 well plate and 20 nL of compound was added by Echo® liquid handler. NN6394A (terfenadine, a toxic compound) was added to control wells at 50 μM concentration to establish the assay window. In these wells the cells are dead which equals 100% degradation of STAT6.
After 4-24 h of incubation at 37° C. under 5% CO2/95% air, 5 μL substrate (Nano-GLO®) was added to the wells and the plates were centrifuged and incubated for 0.5 h.
The luminescence in the wells as a measure of non-degraded STAT6 was measured in a plate reader (BMG Pherastar FSX). The measured DC50 (in nM) was determined.
The dose-response curves Examples 3p1, 3e50, 3e17, and 3e51 are shown below (where percent degradation is plotted vs. test compound concentration in M on a log-scale).
On the technique in general: With HiBiT, luminescence reflects the tagged protein that the partner subunit can reach.
For orientation: DC50 means the midpoint of the concentration-degradation curve. On to `Cn1c(CN2CCC(c3ccc(C(=O)N4CCC(CN5CCN(Cc6ccc7c(c6F)n(C)c(=O)n7C6CCC(=O)NC6=O)CC5)CC4)cc3)CC2)cc2c(-c3ccc(N)nc3)ccnc21` (centres unmarked) [Example 3e14, 3-(5-((4-((1-(4-(1-((4-(6-aminopyridin-3-yl)-1-methyl-1H-pyrrolo[2,3-b]pyridin-2-yl)methyl)piperidin-4-yl)benzoyl)piperidin-4-yl)methyl)piperazin-1-yl)methyl)-4-fluoro-3-methyl-2-oxo-2,3-dihydro-1H-benzo[d]imidazol-1-yl)piperidine-2,6-dione], for which the DC50 came to 1.5 nM.

Regarding `Cn1c(CN2CCC(c3ccc(C(=O)N4CCC(CCn5cc(-c6ccc7c(c6)n(C)c(=O)n7C6CCC(=O)NC6=O)cn5)CC4)cc3)CC2)cc2c(-c3ccc4[nH]ncc4c3)ccnc21` (centres unmarked) [Example 3l4, 3-(5-(1-(2-(1-(4-(1-((4-(1H-indazol-5-yl)-1-methyl-1H-pyrrolo[2,3-b]pyridin-2-yl)methyl)-piperidin-4-yl)benzoyl)piperidin-4-yl)ethyl)-1H-pyrazol-4-yl)-3-methyl-2-oxo-2,3-dihydro-1H-benzo[d]imidazol-1-yl)piperidine-2,6-dione], the DC50 turned out to be 2.6 nM.

For the compound `Cc1cc(C(=O)N(C)c2ccc(C3CCN(Cc4ccc5c(c4)n(C)c(=O)n5C4CCC(=O)NC4=O)CC3)cc2)cc(F)c1C1=CCN(Cc2cc3c(-c4ccc(N)nc4)ccnc3n2C)CC1` (centres unmarked) [Example 3h39, 4-(1-((4-(6-aminopyridin-3-yl)-1-methyl-1H-pyrrolo[2,3-b]pyridin-2-yl)methyl)-1,2,3,6-tetrahydropyridin-4-yl)-N-(4-(1-((1-(2,6-dioxopiperidin-3-yl)-3-methyl-2-oxo-2,3-dihydro-1H-benzo[d]imidazol-5-yl)methyl)piperidin-4-yl)phenyl)-3-fluoro-N,5-dimethylbenzamide], the DC50 came to 0.1 nM.

Turning to `Cn1c(CN2CCC(c3ccc(C(=O)N4CCC(CCn5cc(-c6cccc7c6n(C)c(=O)n7C6CCC(=O)NC6=O)cn5)CC4)cc3)CC2)cc2c(-c3ccc4[nH]ncc4c3)ccnc21` (centres unmarked) [Example 3l2, 3-(4-(1-(2-(1-(4-(1-((4-(1H-indazol-5-yl)-1-methyl-1H-pyrrolo[2,3-b]pyridin-2-yl)methyl)-piperidin-4-yl)benzoyl)piperidin-4-yl)ethyl)-1H-pyrazol-4-yl)-3-methyl-2-oxo-2,3-dihydro-1H-benzo[d]-imidazol-1-yl)piperidine-2,6-dione], the DC50 was determined as 3 nM.

On to `Cn1c(CN2CCC(c3ccc(C(=O)N4CCC(CN5CCN(Cc6ccc7c(c6)n(C)c(=O)n7C6CCC(=O)NC6=O)CC5)CC4)cc3)CC2)cc2c(-c3ccc4[nH]ncc4c3)ccnc21` (centres unmarked) [Example 3e1, 3-(5-((4-((1-(4-(1-((4-(1H-indazol-5-yl)-1-methyl-1H-pyrrolo[2,3-b]pyridin-2-yl)methyl)piperidin-4-yl)benzoyl)piperidin-4-yl)methyl)piperazin-1-yl)methyl)-3-methyl-2-oxo-2,3-dihydro-1H-benzo[d]imidazol-1-yl)piperidine-2,6-dione], for which the DC50 was 0.6 nM.

As for `CNc1ccc(-c2ccnc3c2cc([C@H](C)N2CCC(c4ccc(C(=O)N5CCC(CN6CCN(Cc7cc8c(cc7F)n(C7CCC(=O)NC7=O)c(=O)n8C)C[C@@H]6C)CC5)cc4)CC2)n3C)cn1` (stereo partly drawn) [Example 3h21, 3-(6-fluoro-3-methyl-5-(((S)-3-methyl-4-((1-(4-(1-((S)-1-(1-methyl-4-(6-(methylamino)pyridin-3-yl)-1H-pyrrolo[2,3-b]pyridin-2-yl)ethyl)piperidin-4-yl)benzoyl)piperidin-4-yl)methyl)piperazin-1-yl)methyl)-2-oxo-2,3-dihydro-1H-benzo[d]imidazol-1-yl)piperidine-2,6-dione], the DC50 was found to be 1 nM.

With `COCc1nc2cc(-c3ccnc4c3cc(CN3CCC(c5ccc(C(=O)N6CCC(CN7CCN(Cc8ccc9c(c8)oc(=O)n9C8CCC(=O)NC8=O)CC7)CC6)cc5)CC3)n4C)ccc2[nH]1` (centres unmarked) [Example 3n2, 3-(6-((4-((1-(4-(1-((4-(2-(methoxymethyl)-1H-benzo[d]imidazol-5-yl)-1-methyl-1H-pyrrolo[2,3-b]pyridin-2-yl)methyl)piperidin-4-yl)benzoyl)piperidin-4-yl)methyl)piperazin-1-yl)methyl)-2-oxobenzo[d]-oxazol-3 (2H)-yl)piperidine-2,6-dione], the DC50 is 1.1 nM.

As to `CNc1ccc(-c2ccnc3c2cc([C@H](C)N2CC=C(c4c(C)cc(C(=O)N5CCC(CC6CCN(c7ccc8c(c7)C7(CC7)C(=O)N8C7CCC(=O)NC7=O)CC6)CC5)cc4F)CC2)n3C)cn1` (stereo partly drawn) [Example 3h8, 3-(5′-(4-((1-(3-fluoro-5-methyl-4-(1-((S)-1-(1-methyl-4-(6-(methylamino)pyridin-3-yl)-1H-pyrrolo[2,3-b]pyridin-2-yl)ethyl)-1,2,3,6-tetrahydropyridin-4-yl)benzoyl)piperidin-4-yl)methyl)piperidin-1-yl)-2′-oxospiro[cyclopropane-1,3′-indolin]-1′-yl)piperidine-2,6-dione], the DC50 worked out at 28.4 nM.

On to `COCc1nc2cc(-c3ccnc4c3cc([C@H](C)N3CCC(c5ccc(C(=O)N6CCC(CN7CCN(Cc8ccc9c(c8)n(C)c(=O)n9C8CCC(=O)NC8=O)C[C@@H]7C)CC6)cc5)CC3)n4C)ccc2[nH]1` (stereo partly drawn) [Example 3e22, 3-(5-(((S)-4-((1-(4-(1-((S)-1-(4-(2-(methoxymethyl)-1H-benzo[d]imidazol-5-yl)-1-methyl-1H-pyrrolo[2,3-b]pyridin-2-yl)ethyl)piperidin-4-yl)benzoyl)piperidin-4-yl)methyl)-3-methylpiperazin-1-yl)methyl)-3-methyl-2-oxo-2,3-dihydro-1H-benzo[d]imidazol-1-yl)piperidine-2,6-dione], for which the DC50 came out at 0.3 nM.

The experiment is the same for the next values; noted with them: HeLa LgBiT clone 4.14, 4-24 h; read-out: STAT6 degradation Emax (%).
In general, Emax refers to the maximal effect, on the per cent scale that the assay sets. `Cn1c(CN2CCC(c3ccc(C(=O)N4CCC(CN5CCN(Cc6ccc7c(c6)oc(=O)n7C6CCC(=O)NC6=O)CC5)CC4)cc3)CC2)cc2c(-c3ccc(N)nc3)ccnc21` (centres unmarked) [Example 3n1, 3-(6-((4-((1-(4-(1-((4-(6-aminopyridin-3-yl)-1-methyl-1H-pyrrolo[2,3-b]pyridin-2-yl)methyl)piperidin-4-yl)benzoyl)piperidin-4-yl)methyl)piperazin-1-yl)methyl)-2-oxobenzo[d]oxazol-3 (2H)-yl)piperidine-2,6-dione]: the Emax fell in the range of 60 to 70%.

In the case of `Cn1c(CN2CCC(c3ccc(C(=O)N4CCC(CN5CCC(c6ccc7c(c6)n(C)c(=O)n7C6CCC(=O)NC6=O)CC5)CC4)cc3)CC2)cc2c(-c3ccc4[nH]ncc4c3)ccnc21` (centres unmarked) [Example 3d1, 3-(5-(1-((1-(4-(1-((4-(1H-indazol-5-yl)-1-methyl-1H-pyrrolo[2,3-b]pyridin-2-yl)methyl)piperidin-4-yl)benzoyl)piperidin-4-yl)methyl)piperidin-4-yl)-3-methyl-2-oxo-2,3-dihydro-1H-benzo[d]imidazol-1-yl)piperidine-2,6-dione], the Emax lay within 50 to 60%.

For `C[C@H]1CN(Cc2ccc3c(c2)n(C2CC2)c(=O)n3C2CCC(=O)N(C)C2=O)CCN1CC1CCN(C(=O)c2ccc(C3CCN([C@@H](C)c4cc5c(-c6ccc(N)nc6)ccnc5n4C)CC3)cc2)CC1` (stereo partly drawn) [Example 3h28, 3-(5-(((S)-4-((1-(4-(1-((S)-1-(4-(6-aminopyridin-3-yl)-1-methyl-1H-pyrrolo[2,3-b]pyridin-2-yl)ethyl)piperidin-4-yl)benzoyl)piperidin-4-yl)methyl)-3-methylpiperazin-1-yl)methyl)-3-cyclopropyl-2-oxo-2,3-dihydro-1H-benzo[d]imidazol-1-yl)-1-methylpiperidine-2,6-dione], the Emax lay within 20 to 30%.

Consider `Cn1c(CN2CCC(c3ccc(C(=O)N4CCN(CC5CCN(Cc6ccc7c(c6)n(C)c(=O)n7C6CCC(=O)NC6=O)CC5)CC4)cc3)CC2)cc2c(-c3ccc4[nH]ncc4c3)ccnc21` (centres unmarked) [Example 3f1, 3-(5-((4-((4-(4-(1-((4-(1H-indazol-5-yl)-1-methyl-1H-pyrrolo[2,3-b]pyridin-2-yl)methyl)-piperidin-4-yl)benzoyl)piperazin-1-yl)methyl)piperidin-1-yl)methyl)-3-methyl-2-oxo-2,3-dihydro-1H-benzo[d]imidazol-1-yl)piperidine-2,6-dione], for which the Emax was 40 to 50%.

With `C[C@@H](c1cc2c(-c3ccc(N)nc3)ccnc2n1C)N1CCC(c2ccc(C(=O)N3CCC(CN4CCN(Cc5ccc6c(c5)n(C5CC5)c(=O)n6C5CCC(=O)NC5=O)CC4)CC3)cc2)CC1` (stereo partly drawn) [Example 3e10, 3-(5-((4-((1-(4-(1-((S)-1-(4-(6-aminopyridin-3-yl)-1-methyl-1H-pyrrolo[2,3-b]pyridin-2-yl)ethyl)piperidin-4-yl)benzoyl)piperidin-4-yl)methyl)piperazin-1-yl)methyl)-3-cyclopropyl-2-oxo-2,3-dihydro-1H-benzo[d]imidazol-1-yl)piperidine-2,6-dione], the Emax is less than 20%.
